We go through eight compounds from patent US20170022171A1, “2,5-DISUBSTITUTED CYCLOPENTANECARBOXYLIC ACIDS AND THEIR USE” (Bayer Pharma Aktiengesellschaft, priority 2014, published 2017).

A value given as a limit tells only on which side of the number the result lay.

Holding throughout (format): biochemical
The target in one assay is T1, MMP-8 (Homo sapiens, UniProt P22894).
T1 construct: purchased R&D Systems 908-MP
Put plainly: In vitro MMP-8 inhibition test. The text has this: (§1) The MMP-mediated amidolytic cleavage of a suitable peptide substrate leads to an increase in fluorescent light here too. The signal intensity of the fluorescent light is directly proportional to the enzyme activity. The active concentration of a test compound at which half the enzyme is inhibited (50% signal intensity of the fluorescent light) is reported as the IC50 value.
(§2) Recombinant MMP-8 (from R&D Systems, 908-MP) is chemically activated in accordance with the manufacturer's instructions using APMA. 1 μl of the test compound to be analysed (as a solution in DMSO, suitable concentrations, for example, 1 nM to 30 μM) is pipetted into 24 μl of activated enzyme (final concentration, for example, 0.5 nM) in reaction buffer (50 mM Tris/HCl pH 7.5, 10 mM CaCl2, 150 mM NaCl, 0.05% Brij®-35) in a white 384-hole microtiter plate (MTP). The enzymatic reaction is started by adding the intramolecularly quenched Mca-Pro-Leu-Gly-Leu-Dpa(Dnp)-Ala-Arg-NH2 substrate (final concentration, for example, 10 μM; R&D Systems, ES-001), so as to result in a total test volume of 50 μl. The course of the MMP-8 reaction is measured by measuring the fluorescence intensity (excitation 320 nm, emission 410 nm) over a suitable period of time (for example over 120 min at a temperature of 32° C.).

For assay [1], the target named is T2, human macrophage elastase (HME/hMMP-12) (Homo sapiens, UniProt P39900).
T2 construct: 0.5 nM HME; purchased R&D Systems 917-MP
Put plainly: In vitro HME inhibition test (standard or high-sensitivity). Conditions: in some cases mean values. Put shortly: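 Fluorogenic assay: 0.5 nM autoactivated HME with 5 µM Mca-Pro-Leu-Gly-Leu-Glu-Glu-Ala-Dap(Dnp)-NH2 in HEPES pH 7.4 buffer (NaCl, CaCl2, ZnCl2, EDTA, Brij), 2 h at 37 °C; ex 323/em 393 nm. IC50 from fluorescence versus concentration. High-sensitivity format: ~0.05 nM enzyme, ~16 h incubation.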

A further assay addresses T3, MMP-3 (Homo sapiens, UniProt P08254).
T3 construct: purchased R&D Systems 513-MP
Description: In vitro MMP-3 inhibition test.
Excerpt: as §1
as §2, with “MMP-3” for “MMP-8”, “513-MP)” for “908-MP)”, “2” for “0.5”, “Mca-Arg-Pro-Lys-Pro-Val-Glu-Nval-Trp-Arg-Lys(Dnp)-NH2” for “Mca-Pro-Leu-Gly-Leu-Dpa(Dnp)-Ala-Arg-NH2”, “ES-002),” for “ES-001),”, “50” for “50 μl.”

The target in another assay is T4, MMP-16 (Homo sapiens, UniProt P51512).
T4 construct: purchased R&D Systems 1785-MP
Put plainly: In vitro MMP-16 inhibition test.
Excerpt: as §1
Recombinant MMP-16 (from R&D Systems, 1785-MP) is enzymatically activated in accordance with the manufacturer's instructions using recombinant furin (from R&D Systems, 1503-SE). 1 μl of the test compound to be analysed (as a solution in DMSO, suitable concentrations e.g. 1 nM to 30 μM) is pipetted into 24 μl of activated enzyme (final concentration e.g. 1 nM) in reaction buffer (50 mM Tris/HCl pH 7.5, 10 mM CaCl2, 150 mM NaCl, 0.05% Brij®-35) in a white 384-hole microtiter plate (MTP). The enzymatic reaction is started by adding the intramolecularly quenched Mca-Lys-Pro-Leu-Gly-Leu-Dpa(Dnp)-Ala-Arg-NH2 substrate (final concentration, for example, 5 μM; R&D Systems, ES-010), so as to result in a total test volume of 50 The course of the MMP-16 reaction is measured by measuring the fluorescence intensity (excitation 320 nm, emission 410 nm) over a suitable period of time (for example over 120 min at a temperature of 32° C.).

T3 sequence (P08254 100-477): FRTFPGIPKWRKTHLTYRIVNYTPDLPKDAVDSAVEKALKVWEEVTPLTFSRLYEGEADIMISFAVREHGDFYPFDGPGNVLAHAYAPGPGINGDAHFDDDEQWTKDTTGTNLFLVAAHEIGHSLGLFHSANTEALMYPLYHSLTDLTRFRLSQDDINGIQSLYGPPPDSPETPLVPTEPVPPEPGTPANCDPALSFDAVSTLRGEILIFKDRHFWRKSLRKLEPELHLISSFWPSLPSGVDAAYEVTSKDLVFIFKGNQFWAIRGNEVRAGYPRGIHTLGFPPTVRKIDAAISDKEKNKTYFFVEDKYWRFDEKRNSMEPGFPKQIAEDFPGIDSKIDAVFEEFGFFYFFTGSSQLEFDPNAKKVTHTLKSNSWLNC
T4 sequence (P51512 120-564 limits assumed): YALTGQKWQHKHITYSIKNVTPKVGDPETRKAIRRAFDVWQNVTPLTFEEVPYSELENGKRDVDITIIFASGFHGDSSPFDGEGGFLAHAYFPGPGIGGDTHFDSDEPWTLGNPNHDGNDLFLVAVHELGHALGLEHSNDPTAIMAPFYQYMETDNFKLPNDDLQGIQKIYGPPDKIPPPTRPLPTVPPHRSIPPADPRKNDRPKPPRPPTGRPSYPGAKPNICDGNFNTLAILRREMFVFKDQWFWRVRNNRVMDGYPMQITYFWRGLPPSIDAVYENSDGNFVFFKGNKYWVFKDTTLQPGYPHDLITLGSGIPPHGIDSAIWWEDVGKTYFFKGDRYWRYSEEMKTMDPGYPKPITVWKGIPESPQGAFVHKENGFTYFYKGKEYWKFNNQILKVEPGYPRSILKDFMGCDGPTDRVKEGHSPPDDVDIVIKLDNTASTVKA
T1 sequence (P22894 101-467): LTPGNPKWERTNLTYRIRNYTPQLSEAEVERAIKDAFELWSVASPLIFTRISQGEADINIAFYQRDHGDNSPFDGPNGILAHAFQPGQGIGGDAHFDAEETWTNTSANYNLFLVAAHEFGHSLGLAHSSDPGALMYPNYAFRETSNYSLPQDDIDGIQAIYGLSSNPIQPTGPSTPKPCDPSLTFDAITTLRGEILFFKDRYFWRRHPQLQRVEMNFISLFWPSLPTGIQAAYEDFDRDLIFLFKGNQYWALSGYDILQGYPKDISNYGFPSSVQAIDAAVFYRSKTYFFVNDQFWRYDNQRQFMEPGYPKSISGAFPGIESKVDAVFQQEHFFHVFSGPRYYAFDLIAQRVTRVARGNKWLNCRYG
T2 sequence (P39900 106-470): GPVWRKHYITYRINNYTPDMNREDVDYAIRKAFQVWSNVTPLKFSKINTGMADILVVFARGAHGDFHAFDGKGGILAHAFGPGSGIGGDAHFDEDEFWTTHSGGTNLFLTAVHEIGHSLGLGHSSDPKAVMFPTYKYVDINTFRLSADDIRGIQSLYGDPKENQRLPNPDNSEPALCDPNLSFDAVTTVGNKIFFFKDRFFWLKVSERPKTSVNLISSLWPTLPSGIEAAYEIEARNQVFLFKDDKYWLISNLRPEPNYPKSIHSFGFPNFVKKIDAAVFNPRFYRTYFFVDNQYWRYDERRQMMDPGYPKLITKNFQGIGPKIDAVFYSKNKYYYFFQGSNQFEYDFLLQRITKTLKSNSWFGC

In the case of `O=C(O)[C@H]1[C@H](Cn2nnc3ccc(C(F)(F)F)cc3c2=O)CC[C@@H]1C(=O)c1ccc(OCc2ccccc2)cc1` (racemic) [Example 11, (+/−)-(1RS,2RS,5SR)-2-[4-(Benzyloxy)benzoyl]-5-{[4-oxo-6-(trifluoromethyl)-1,2,3-benzotriazin-3(4H)-yl]methyl}cyclopentanecarboxylic acid], the IC50 (as a rule, the concentration that gives 50% inhibition) against MMP-8 was determined as 3.2 nM; in assay [1], 0.014 nM; at MMP-3, 100 nM; against MMP-16, 4500 nM.

As for `Cc1ccc2nnn(C[C@H]3CC[C@@H](C(=O)c4ccc(OCc5cccc(Cl)c5)cc4)[C@@H]3C(=O)O)c(=O)c2c1` (single isomer, unassigned) [Example 104, (+)-(1RS,2RS,5SR)-2-{4-[(3-Chlorobenzyl)oxy]benzoyl}-5-[(6-methyl-4-oxo-1,2,3-benzotriazin-3(4H)-yl)methyl]cyclopentanecarboxylic acid], the IC50 on MMP-8 was determined as 31 nM; in assay [1], 0.12 nM; against MMP-3, 260 nM; on MMP-16 it was 540 nM.

Regarding “(+)-(1RS,2RS,5SR)-2-{4-[(3,4-Dichlorobenzyl)oxy]benzoyl}-5-{[4-oxo-6-(trifluoromethyl)-1,2,3-benzotriazin-3(4H)-yl]methyl}cyclopentanecarboxylic acid [Example 28]”, the IC50 against MMP-8 is 43 nM; in assay [1], 0.036 nM; on MMP-3 it was 250 nM; against MMP-16, 2200 nM.

Turning to `COc1cccc(COc2ccc(C(=O)[C@@H]3CC[C@H](Cn4nnc5ccc(C)cc5c4=O)[C@H]3C(=O)O)cc2)c1` (single isomer, unassigned) [Example 107, (+)-(1RS,2RS,5SR)-2-{4-[(3-Methoxybenzyl)oxy]benzoyl}-5-[(6-methyl-4-oxo-1,2,3-benzotriazin-3(4H)-yl)methyl]cyclopentanecarboxylic acid], the IC50 against MMP-8 is 19 nM; in assay [1], 0.035 nM; on MMP-3 it was 730 nM; on MMP-16, 650 nM.

`O=C(O)[C@H]1[C@H](Cn2nnc3ccccc3c2=O)CC[C@@H]1C(=O)c1ccc(OCc2ccc(Cl)c(Cl)c2)cc1` (racemic) [Example 3, (+/−)-(1RS,2RS,5SR)-2-{4-[(3,4-Dichlorobenzyl)oxy]benzoyl}-5-[(4-oxo-1,2,3-benzotriazin-3(4H)-yl)methyl]cyclopentanecarboxylic acid]: the IC50 against MMP-8 came to 260 nM; in assay [1] it was 0.055 nM; at MMP-3 it was 1500 nM; on MMP-16 it was 4000 nM.

`Cc1cccc(COc2ccc(C(=O)[C@H]3CC[C@@H](Cn4nnc5ccc(C(F)(F)F)cc5c4=O)[C@@H]3C(=O)O)cc2)c1` (racemic) [Example 15, (+/−)-(1RS,2RS,5SR)-2-{4-[(3-Methylbenzyl)oxy]benzoyl}-5-{[4-oxo-6-(trifluoromethyl)-1,2,3-benzotriazin-3(4H)-yl]methyl}cyclopentanecarboxylic acid]: the IC50 against MMP-8 was 26 nM; in assay [1] it was 0.05 nM; at MMP-3, 220 nM; at MMP-16, 520 nM.

On to `O=C(O)[C@@H]1[C@@H](Cn2nnc3ccc(C(F)(F)F)cc3c2=O)CC[C@H]1C(=O)c1ccc(OCc2ccc(Cl)cc2)cc1` (single isomer, unassigned) [Example 25, (+)-(1RS,2RS,5SR)-2-{4-[(4-Chlorobenzyl)oxy]benzoyl}-5-{[4-oxo-6-(trifluoromethyl)-1,2,3-benzotriazin-3(4H)-yl]methyl}cyclopentanecarboxylic acid], for which the IC50 on MMP-8 was 0.79 nM; in assay [1], 0.013 nM; at MMP-3 it was 63 nM; at MMP-16, 290 nM.

Regarding `O=C(O)[C@H]1[C@H](Cn2nnc3ccc(C(F)(F)F)cc3c2=O)CC[C@@H]1C(=O)c1ccc(OCCCC2CCCCC2)cc1` (racemic) [Example 56, (+/−)-(1RS,2RS,5SR)-2-{4-(3-Cyclohexylpropoxy)benzoyl}-5-{[4-oxo-6-(trifluoromethyl)-1,2,3-benzotriazin-3(4H)-yl]methyl}cyclopentanecarboxylic acid], the concentration for half-maximal inhibition (IC50) is 580 nM at MMP-8, 0.2 nM in assay [1], 2000 nM at MMP-3 and over 40000 nM against MMP-16.
